Assay results as given in patent US9676789B2, “Aminated derivative of homoharringtonine, preparation method therefor, and application thereof” (HANGZHOU BENSHENG PHARMACEUTICAL CO., LTD., priority 2011, dated 2017).
In brackets after ≈: the same amount, converted by molar mass.

What was measured:
[1] = system: H9 (acute lymphoblastic leukemia, ALL); experiment: MTT leukemia cell growth inhibition, 72 h; assay type: cell-based, human; details: Homo sapiens, H9, 72 h; for IC50: read-out: IC50; for IC90: read-out: IC90
Method in brief: (§1)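 Cells were seeded at 6000 per well in RPMI-1640 with 10% FBS and exposed to homoharringtonine derivatives at various concentrations for 72 h at 37°C, 5% CO2. Viable cells were measured by MTT. Untreated controls were set as 100% viability.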

[2] = system: Jurkat (acute lymphoblastic leukemia, ALL); experiment: MTT leukemia cell growth inhibition, 72 h; assay type: cell-based, human; details: Homo sapiens; for IC50: read-out: IC50; for IC90: read-out: IC90
Method in brief: as §1

[3] = system: K562/adr (drug-resistant, chronic myeloid leukemia, CML); experiment: MTT leukemia cell growth inhibition, 72 h; assay type: cell-based, human; details: Homo sapiens, K562/Adr; for IC50: read-out: IC50; for IC90: read-out: IC90
Method in brief: as §1

[4] = system: Kasumi-1 (acute myeloid leukemia M2 type, AML-M2); experiment: MTT leukemia cell growth inhibition, 72 h; assay type: cell-based, human; details: Homo sapiens, Kasumi-1, 72 h; for IC50: read-out: IC50; for IC90: read-out: IC90
Method in brief: as §1

[5] = system: NB4 (acute promyelocytic leukemia, AML); experiment: MTT leukemia cell growth inhibition, 72 h; assay type: cell-based, human; details: Homo sapiens, NB4, 72 h; for IC50: read-out: IC50; for IC90: read-out: IC90
Method in brief: as §1

[6] = system: RPMI8226 (multiple myeloma); experiment: MTT multiple myeloma cell growth inhibition, 72 h; assay type: cell-based, human; details: Homo sapiens, RPMI-8226, RPMI8226, 72 h; for IC50: read-out: IC50; for IC90: read-out: IC90
Method in brief: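 Viability determined by MTT after 72 h of compound exposure at 37° C under 5% CO2. Myeloma RPMI8226 cells were seeded at 6000 per well in 1640 medium containing 10% fetal bovine serum.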

A549 (human lung cancer) = experiment: MTT solid tumor cell growth inhibition, 72 h; assay type: cell-based; details: Homo sapiens, A549, 72 h; for IC50: read-out: IC50; for IC90: read-out: IC90
Method in brief: (§2)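 Cells seeded at 4000 per well in DMEM high glucose with 10% FBS were grown 24 h at 37° C, 5% CO2, then exposed to homoharringtonine derivatives at various concentrations for 72 h. Viable cells were measured by MTT, and viability (%) was expressed relative to untreated controls set at 100%.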

[7] = system: Becap37 (human breast cancer cell); experiment: MTT solid tumor cell growth inhibition, 72 h; assay type: cell-based; details: Homo sapiens, Becap37, 72 h; for IC50: read-out: IC50; for IC90: read-out: IC90
Method in brief: as §2

[8] = system: Hela (human cervical cancer cell); experiment: MTT solid tumor cell growth inhibition, 72 h; assay type: cell-based; details: Homo sapiens, HeLa; for IC50: read-out: IC50; for IC90: read-out: IC90
Method in brief: as §2

[9] = system: Hep-2 (human hepatocellular carcinoma); experiment: MTT solid tumor cell growth inhibition, 72 h; assay type: cell-based; details: Homo sapiens, HEp-2, Hep2, 72 h; for IC50: read-out: IC50; for IC90: read-out: IC90
Method in brief: as §2

[10] = system: Huh7 (human liver cancer cell); experiment: MTT solid tumor cell growth inhibition, 72 h; assay type: cell-based; details: Homo sapiens, Huh-7, Huh7, 72 h; for IC50: read-out: IC50; for IC90: read-out: IC90
Method in brief: as §2

[11] = system: MGC 803 (human gastric cancer cell); experiment: MTT solid tumor cell growth inhibition, 72 h; assay type: cell-based; details: Homo sapiens, MGC 803, 72 h; for IC50: read-out: IC50; for IC90: read-out: IC90
Method in brief: as §2

[12] = system: RKO (human colon adenocarcinoma cell); experiment: MTT solid tumor cell growth inhibition, 72 h; assay type: cell-based; details: Homo sapiens; for IC50: read-out: IC50; for IC90: read-out: IC90
Method in brief: as §2

[13] = system: CNE (nasopharyngeal carcinoma cell); experiment: MTT solid tumor cell growth inhibition, 72 h; assay type: cell-based, human; details: Homo sapiens; for IC50: read-out: IC50; for IC90: read-out: IC90
Method in brief: as §2

[14] = system: CaES-17 (esophageal cancer cell); experiment: MTT solid tumor cell growth inhibition, 72 h; assay type: cell-based, human; details: Homo sapiens, CaEs17, CaES-17, 72 h; for IC50: read-out: IC50; for IC90: read-out: IC90
Method in brief: as §2

MG63 (osteosarcoma) = experiment: MTT solid tumor cell growth inhibition, 72 h; assay type: cell-based, human; details: Homo sapiens, MG 63, 72 h; for IC50: read-out: IC50; for IC90: read-out: IC90
Method in brief: as §2

[15] = system: PANC-1 (pancreatic cancer); experiment: MTT solid tumor cell growth inhibition, 72 h; assay type: cell-based, human; details: Homo sapiens, PANC-1, 72 h; for IC50: read-out: IC50; for IC90: read-out: IC90
Method in brief: as §2

PC-3 (prostate cancer) = experiment: MTT solid tumor cell growth inhibition, 72 h; assay type: cell-based, human; details: Homo sapiens, PC-3, 72 h; for IC50: read-out: IC50; for IC90: read-out: IC90
Method in brief: as §2

[16] = system: SK-OV-3 (ovarian cancer cell); experiment: MTT solid tumor cell growth inhibition, 72 h; assay type: cell-based, human; details: Homo sapiens, SK-OV-3, 72 h; for IC50: read-out: IC50; for IC90: read-out: IC90
Method in brief: as §2

[17] = system: U87 MG (malignant glioma cell); experiment: MTT solid tumor cell growth inhibition, 72 h; assay type: cell-based, human; details: Homo sapiens, U-87 MG; for IC50: read-out: IC50; for IC90: read-out: IC90
Method in brief: as §2

Compound	IC50 [1] [µg/mL]	IC90 [1] [µg/mL]	IC50 [2] [µg/mL]	IC90 [2] [µg/mL]	IC50 [3] [µg/mL]	IC90 [3] [µg/mL]	IC50 [4] [µg/mL]	IC90 [4] [µg/mL]	IC50 [5] [µg/mL]	IC90 [5] [µg/mL]	IC50 [6] [µg/mL]	IC90 [6] [µg/mL]	IC50 (A549 (human lung cancer)) [µg/mL]	IC90 (A549 (human lung cancer)) [µg/mL]	IC50 [7] [µg/mL]	IC90 [7] [µg/mL]	IC50 [8] [µg/mL]	IC90 [8] [µg/mL]	IC50 [9] [µg/mL]	IC90 [9] [µg/mL]	also measured
COC1=C[C@]23CCCN2CCc2cc4c(cc2[C@@H]3[C@@H]1OC(=O)[C@@](O)(CCCC(C)(C)O)CC(=O)N1CCN(C(C)C)CC1)OCO4 [BS-HH-034]	0.6 (≈ 0.935 µM)	2.7 (≈ 4.21 µM)	0.46 (≈ 0.717 µM)	16 (≈ 24.9 µM)	4.53 (≈ 7.06 µM)	16 (≈ 24.9 µM)	0.31 (≈ 0.483 µM)	1.77 (≈ 2.76 µM)	0.48 (≈ 0.748 µM)	2.3 (≈ 3.58 µM)	0.47 (≈ 0.732 µM)	3.72 (≈ 5.8 µM)	1.74 (≈ 2.71 µM)	> 16	0.81 (≈ 1.26 µM)	> 16	1.97 (≈ 3.07 µM)	> 16	1.29 (≈ 2.01 µM)	> 16	IC50 [10]: 1.05 µg/mL (≈ 1.64 µM); IC90 [10]: > 16 µg/mL; IC50 [11]: 0.81 µg/mL (≈ 1.26 µM); IC90 [11]: 11.8 µg/mL (≈ 18.4 µM); IC50 [12]: 0.18 µg/mL (≈ 0.28 µM); IC90 [12]: 1.25 µg/mL (≈ 1.95 µM); IC50 [13]: 0.49 µg/mL (≈ 0.763 µM); IC90 [13]: 16 µg/mL (≈ 24.9 µM); IC50 [14]: 1.91 µg/mL (≈ 2.98 µM); IC90 [14]: 16 µg/mL (≈ 24.9 µM); IC50 (MG63 (osteosarcoma)): 0.32 µg/mL (≈ 0.499 µM); IC90 (MG63 (osteosarcoma)): 16 µg/mL (≈ 24.9 µM); IC50 [15]: 1.94 µg/mL (≈ 3.02 µM); IC90 [15]: > 16 µg/mL; IC50 (PC-3 (prostate cancer)): 0.91 µg/mL (≈ 1.42 µM); IC90 (PC-3 (prostate cancer)): > 16 µg/mL; IC50 [16]: 2.81 µg/mL (≈ 4.38 µM); IC90 [16]: > 16 µg/mL; IC50 [17]: 0.89 µg/mL (≈ 1.39 µM); IC90 [17]: 5.74 µg/mL (≈ 8.94 µM)
COC1=C[C@]23CCCN2CCc2cc4c(cc2[C@@H]3[C@@H]1OC(=O)[C@@](O)(CCCC(C)(C)O)CC(=O)N1CCN(c2ccccn2)CC1)OCO4 [BS-HH-044]	1.41 (≈ 2.08 µM)	16 (≈ 23.6 µM)	0.48 (≈ 0.709 µM)	16 (≈ 23.6 µM)	5.18 (≈ 7.65 µM)	16 (≈ 23.6 µM)	0.38 (≈ 0.561 µM)	2.25 (≈ 3.32 µM)	0.25 (≈ 0.369 µM)	0.64 (≈ 0.946 µM)	0.48 (≈ 0.709 µM)	3.36 (≈ 4.96 µM)	1.76 (≈ 2.6 µM)	> 16	0.71 (≈ 1.05 µM)	> 16	1.91 (≈ 2.82 µM)	> 16	1.23 (≈ 1.82 µM)	> 16	IC50 [10]: 0.94 µg/mL (≈ 1.39 µM); IC90 [10]: > 16 µg/mL; IC50 [11]: 0.74 µg/mL (≈ 1.09 µM); IC90 [11]: > 16 µg/mL; IC50 [12]: 0.16 µg/mL (≈ 0.236 µM); IC90 [12]: 2.37 µg/mL (≈ 3.5 µM); IC50 [13]: 0.76 µg/mL (≈ 1.12 µM); IC90 [13]: > 16 µg/mL; IC50 [14]: 1.63 µg/mL (≈ 2.41 µM); IC90 [14]: 16 µg/mL (≈ 23.6 µM); IC50 (MG63 (osteosarcoma)): 0.8 µg/mL (≈ 1.18 µM); IC90 (MG63 (osteosarcoma)): > 16 µg/mL; IC50 [15]: 1.91 µg/mL (≈ 2.82 µM); IC90 [15]: > 16 µg/mL; IC50 (PC-3 (prostate cancer)): 0.78 µg/mL (≈ 1.15 µM); IC90 (PC-3 (prostate cancer)): > 16 µg/mL; IC50 [16]: 3.97 µg/mL (≈ 5.87 µM); IC90 [16]: > 16 µg/mL; IC50 [17]: 0.64 µg/mL (≈ 0.946 µM); IC90 [17]: 16 µg/mL (≈ 23.6 µM)
COC(=O)C[C@](O)(CCCC(C)(C)O)C(=O)O[C@@H]1C(OC)=C[C@]23CCCN2CCc2cc4c(cc2[C@H]13)OCO4 [HHT, O-3-[(2R)-2,6-dihydroxy-2-(2′-methoxy-2′-oxoethyl)-6-methylheptanoyl]cephalotaxine, reference compound]	0.02 (≈ 0.0367 µM)	0.046 (≈ 0.0843 µM)	0.007 (≈ 0.0128 µM)	16 (≈ 29.3 µM)	0.035 (≈ 0.0641 µM)	0.98 (≈ 1.8 µM)	0.005 (≈ 0.00916 µM)	0.024 (≈ 0.044 µM)	0.006 (≈ 0.011 µM)	0.012 (≈ 0.022 µM)	0.006 (≈ 0.011 µM)	0.027 (≈ 0.0495 µM)	0.03 (≈ 0.055 µM)	> 16	0.01 (≈ 0.0183 µM)	11.6 (≈ 21.2 µM)	0.019 (≈ 0.0348 µM)	16 (≈ 29.3 µM)	0.014 (≈ 0.0257 µM)	> 16	IC50 [10]: 0.004 µg/mL (≈ 0.00733 µM); IC90 [10]: 0.049 µg/mL (≈ 0.0898 µM); IC50 [11]: 0.016 µg/mL (≈ 0.0293 µM); IC90 [11]: 0.2 µg/mL (≈ 0.367 µM); IC50 [12]: 0.003 µg/mL (≈ 0.0055 µM); IC90 [12]: 0.009 µg/mL (≈ 0.0165 µM); IC50 [13]: 0.038 µg/mL (≈ 0.0696 µM); IC90 [13]: > 16 µg/mL; IC50 [14]: 0.037 µg/mL (≈ 0.0678 µM); IC90 [14]: > 16 µg/mL; IC50 (MG63 (osteosarcoma)): 0.01 µg/mL (≈ 0.0183 µM); IC90 (MG63 (osteosarcoma)): 1.2 µg/mL (≈ 2.2 µM); IC50 [15]: 0.035 µg/mL (≈ 0.0641 µM); IC90 [15]: > 16 µg/mL; IC50 (PC-3 (prostate cancer)): 0.004 µg/mL (≈ 0.00733 µM); IC90 (PC-3 (prostate cancer)): 0.049 µg/mL (≈ 0.0898 µM); IC50 [16]: 0.003 µg/mL (≈ 0.0055 µM); IC90 [16]: 0.009 µg/mL (≈ 0.0165 µM); IC50 [17]: 0.004 µg/mL (≈ 0.00733 µM); IC90 [17]: 0.018 µg/mL (≈ 0.033 µM)
